Measured values from patent US9763445B2, “Safened herbicidal compositions comprising a pyridine carboxylic acid herbicide” (Dow AgroSciences, LLC, priority 2014, dated 2017).

Tests used:
winter wheat (TRZAW) = experiment: Postemergence greenhouse trial, % visual injury on winter wheat; type: in vivo, Triticum aestivum
Procedure: (§1) Seeds of the desired test plant species were planted in Sun Gro MetroMix® 306 planting mixture, which typically has a pH of 6.0 to 6.8 and an organic matter content of about 30 percent, in plastic pots with a surface area of 103.2 square centimeters (cm^2). When required to ensure good germination and healthy plants, a fungicide treatment and/or other chemical or physical treatment was applied. The plants were grown for 7-36 days (d) in a greenhouse with an approximate 14-hour (h) photoperiod which was maintained at about 23° C. during the day and 22° C. during the night. Nutrients and water were added on a regular basis and supplemental lighting was provided with overhead metal halide 1000-Watt lamps as necessary. The plants were employed for testing when they reached the second or third true leaf stage.
(§2) Weighed amounts of technical material were dissolved in a volume of 97:3 volume per volume (v/v) acetone/dimethyl sulfoxide (DMSO) to stock solutions. […] The concentrated stock solutions were diluted with an aqueous mixture of 1.5% v/v of Agri-dex crop oil concentrate to provide the appropriate application rates. Compound requirements are based upon a 12 milliliter (mL) application volume at a rate of 187 liters per hectare (L/ha). Stocks solutions of the safeners were prepared following the same procedure. Spray solutions of the safeners and experimental compound mixtures were prepared by adding the stock solutions to the appropriate amount of dilution solution to form a 12 mL spray solution in two-way combinations. Formulated compounds were applied to the plant material with an overhead Mandel track sprayer equipped with 8002E nozzles calibrated to deliver 187 L/ha over an application area of 0.503 square meters (m^2) at a spray height of 18 inches (43 centimeters (cm)) above average plant canopy. Control plants were sprayed in the same manner with the solvent blank. All herbicide application (component a) rates are in g ae/ha and all safener (component b) rates are in g ai/ha.
(§3) The treated plants and control plants were placed in a greenhouse as described above and watered by sub-irrigation to prevent wash-off of the test compounds. After 20-22 d, the condition of the test plants as compared with that of the control plants was determined visually and scored on a scale of 0 to 100 percent where 0 corresponds to no injury and 100 corresponds to complete kill. The condition of the test plants was compared with that of the control plants as determined visually and scored on a scale of 0 to 100 percent, where 0 corresponds to no injury and 100 corresponds to complete kill. Colby's equation was used to determine the herbicidal effects expected from the mixtures.
(§4) The safener cloquintocet-mexyl was combined with compound 1, compound 2, compound 3, compound 7, compound 8, compound 9, compound 10, compound 11, compound 12, compound 13, compound 14, compound 15, compound 16, compound 17, compound 18, compound 19, and compound 20, and applied to spring wheat (TRZAS), winter wheat (TRZAW), and spring barley (HORVS) and the phytotoxicity of the herbicidal compositions was measured. […]

cornflower (CENCY) [1] = experiment: Postemergence greenhouse trial, % visual injury on cornflower; type: in vivo, Centaurea cyanus or Cyanus segetum
Procedure: as §1, §2, §3, §4

common sunflower (HELAN) = experiment: Postemergence greenhouse trial, % visual injury on common sunflower; type: in vivo, Helianthus annuus
Procedure: as §1, §2, §3
(§5) The safener cloquintocet-acid and a number of agriculturally acceptable esters and salts (-mexyl, -dimethylammonium salt and -triethylammonium salt) were combined in varying ratios with compound 1 and applied to spring wheat (TRZAS), winter wheat (TRZAW), and spring barley (HORVS), and the phytotoxicity of the herbicidal compositions was measured. In addition, the efficacy of the herbicidal composition on pigweed (AMARE, Amaranthus retroflexus), nutsedge (CYPES, Cyperus esculentus), common sunflower (HELAN, Helianthus annuus), and common sorghum (SORVU, Sorghum vulgare).

common sorghum (SORVU) = experiment: Postemergence greenhouse trial, % visual injury on common sorghum; type: in vivo, Sorghum vulgare; settings: SORVU
Procedure: as §1, §2
as §3, with “mixtures. […]” for “mixtures.”
as §5

cornflower (CENCY) [2] = experiment: Postemergence greenhouse trial, % visual injury on cornflower; type: in vivo, Centaurea cyanus or Cyanus segetum; remark: listed apart in the source
velvetleaf (ABUTH) = experiment: Postemergence greenhouse trial, % visual injury on velvetleaf; type: in vivo, Abutilon theophrasti; settings: alone, 35 g/ha
Procedure: as §1, §2, §3
(§6) The safener cloquintocet-mexyl was combined with compound 1, compound 2, compound 4, compound 5, and compound 6, and applied to corn/maize (ZEAMX) and spring wheat (TRZAS) and the phytotoxicity of the herbicidal compositions was measured. In addition, the efficacy of the herbicidal composition on velvetleaf (ABUTH, Abutilon theophrasti), pigweed (AMARE, Amaranthus retroflexus), winter rape (BRSNW, Brassica napus), lambsquarters (CHEAL, Chenopodium album), thistle (CIRAR, Cirsium arvense), nutsedge (CYPES, Cyperus esculentus), poinsettia (EPHHL, Euphorbia heterophylla), wild buckwheat (POLCO, Polygonum convolvulus), giant foxtail (SETFA, Setaria faberi), and chickweed (STEME, Stellaria media) was evaluated.
as §4

poinsettia (EPHHL) = experiment: Postemergence greenhouse trial, % visual injury on poinsettia; type: in vivo, Euphorbia heterophylla; settings: alone, 35 g/ha
Procedure: as §1
Weighed amounts of technical material were dissolved in a volume of 97:3 volume per volume (v/v) acetone/dimethyl sulfoxide (DMSO) to stock solutions. […] The concentrated stock solutions were diluted with an aqueous mixture of 1.5% v/v of Agri-dex crop oil concentrate to provide the appropriate application rates. Compound requirements are based upon a 12 milliliter (mL) application volume at a rate of 187 liters per hectare (L/ha). Stocks solutions of the safeners were prepared following the same procedure. […]
as §3, with “Colby's equation was used to determine the herbicidal effects expected from the mixtures.” left out
as §6, with “evaluated. […]” for “evaluated.”

shepherd's purse (CAPBP) = experiment: Postemergence greenhouse trial, % visual injury on shepherd's purse; type: in vivo, Capsella bursa-pastoris
wild pansy (VIOTR) = experiment: Postemergence greenhouse trial, % visual injury on wild pansy; type: in vivo, Viola tricolor; settings: VIOTR, CQC-m 0 g/ha
Procedure: as §1, §2
as §3, with “mixtures. […]” for “mixtures.”

[3] = CENCY, compound 4.380 g/ha, CQC-m 0
[4] = CENCY, compound 8.75 g/ha, CQC-m 0
[5] = CENCY, compound 17.5 g/ha, CQC-m 0
[6] = CENCY, compound 35 g/ha, CQC-m 0
[7] = CENCY, compound 70 g/ha, CQC-m 0

Nc1c(F)c(-c2ccc3cc[nH]c3c2F)nc(C(=O)O)c1Cl [compound 1]
% visual injury, observed (Ob) (winter wheat (TRZAW); TRZAW, compound 1 alone 20 g/ha): 13%
% visual injury, observed (Ob) (winter wheat (TRZAW); TRZAW, compound 1 alone 40 g/ha): 15%
% visual injury, Ob (winter wheat (TRZAW); alone, 35 g/ha): 40%
% visual injury, Ob (winter wheat (TRZAW); alone, 70 g/ha): 50%
% visual injury, Ob (cornflower (CENCY) [1]; alone, 4.375 g/ha): 100%
% visual injury, Ob (cornflower (CENCY) [1]; alone, 8.75 g/ha): 100%
% visual injury, Ob (cornflower (CENCY) [1]; alone, 35 g/ha): 100%
% visual injury, observed (Ob) (common sunflower (HELAN); compound 1 alone 20 g/ha): 98%
% visual injury, observed (Ob) (common sunflower (HELAN); compound 1 alone 40 g/ha): 100%
% visual injury, observed (Ob) (common sorghum (SORVU); compound 1 alone 20 g/ha): 18%
% visual injury, observed (Ob) (common sorghum (SORVU); compound 1 alone 40 g/ha): 68%
% visual injury, Ob (cornflower (CENCY) [2]; alone, 17.5 g/ha): 100%
% visual injury, Ob (cornflower (CENCY) [2]; alone, 70 g/ha): 100%

Nc1c(F)c(-c2ccc3cc[nH]c3c2F)nc(C(=O)OCc2ccccc2)c1Cl [compound 2]
% visual injury, observed (Ob) (winter wheat (TRZAW); TRZAW, compound 2 35 + CQC-m 0 g/ha): 20%
% visual injury, observed (Ob) (winter wheat (TRZAW); TRZAW, compound 2 70 + CQC-m 0 g/ha): 30%
% visual injury, observed (Ob) (winter wheat (TRZAW); TRZAW, compound 2 140 + CQC-m 0 g/ha): 50%
% visual injury, Ob (velvetleaf (ABUTH)): 80%
% visual injury, Ob (poinsettia (EPHHL)): 100%
% visual injury, observed (Ob) (shepherd's purse (CAPBP); compound 2 4.380 + CQC-m 0 g/ha): 20%
% visual injury, observed (Ob) (shepherd's purse (CAPBP); compound 2 8.75 + CQC-m 0 g/ha): 30%
% visual injury, observed (Ob) (shepherd's purse (CAPBP); compound 2 17.5 + CQC-m 0 g/ha): 100%
% visual injury, observed (Ob) (shepherd's purse (CAPBP); compound 2 35 + CQC-m 0 g/ha): 100%
% visual injury, observed (Ob) (shepherd's purse (CAPBP); compound 2 70 + CQC-m 0 g/ha): 100%
% visual injury, observed (Ob) (cornflower (CENCY) [2]; CENCY, compound 2 4.380 + CQC-m 0 g/ha): 100%
% visual injury, observed (Ob) (cornflower (CENCY) [2]; CENCY, compound 2 8.75 + CQC-m 0 g/ha): 100%
% visual injury, observed (Ob) (cornflower (CENCY) [2]; CENCY, compound 2 17.5 + CQC-m 0 g/ha): 100%
% visual injury, observed (Ob) (cornflower (CENCY) [2]; CENCY, compound 2 35 + CQC-m 0 g/ha): 100%
% visual injury, observed (Ob) (cornflower (CENCY) [2]; CENCY, compound 2 70 + CQC-m 0 g/ha): 100%

CO/C=N/c1c(F)c(-c2ccc3cc[nH]c3c2F)nc(C(=O)OC)c1Cl [compound 10]
% visual injury, Ob (cornflower (CENCY) [1]; [3]): 100%
% visual injury, Ob (cornflower (CENCY) [1]; [4]): 100%
% visual injury, Ob (cornflower (CENCY) [1]; [5]): 100%
% visual injury, Ob (cornflower (CENCY) [1]; [6]): 100%
% visual injury, Ob (cornflower (CENCY) [1]; [7]): 100%
% visual injury, Ob (shepherd's purse (CAPBP); compound 8.75 g/ha, CQC-m 0): 60%
% visual injury, Ob (shepherd's purse (CAPBP); compound 35 g/ha, CQC-m 0): 100%

COC(=O)c1nc(-c2ccc3cc[nH]c3c2F)c(F)c(N)c1OC [compound 12]
% visual injury, Ob (cornflower (CENCY) [1]; [3]): 85%
% visual injury, Ob (cornflower (CENCY) [1]; [4]): 95%
% visual injury, Ob (cornflower (CENCY) [1]; [5]): 100%
% visual injury, Ob (cornflower (CENCY) [1]; [6]): 100%
% visual injury, Ob (cornflower (CENCY) [1]; [7]): 100%
% visual injury, Ob (shepherd's purse (CAPBP); compound 8.75 g/ha, CQC-m 0): 100%
% visual injury, Ob (shepherd's purse (CAPBP); compound 35 g/ha, CQC-m 0): 100%

COc1c(C(=O)O)nc(-c2ccc3cc[nH]c3c2F)c(F)c1N [compound 13]
% visual injury, Ob (winter wheat (TRZAW); TRZAW, compound 35 g/ha, CQC-m 0 g/ha): 70%
% visual injury, Ob (winter wheat (TRZAW); TRZAW, compound 70 g/ha, CQC-m 0 g/ha): 80%
% visual injury, Ob (shepherd's purse (CAPBP); compound 4.375 g/ha, CQC-m 0 g/ha): 85%
% visual injury, Ob (shepherd's purse (CAPBP); compound 8.75 g/ha, CQC-m 0 g/ha): 100%
% visual injury, Ob (shepherd's purse (CAPBP); compound 17.5 g/ha, CQC-m 0 g/ha): 100%
% visual injury, Ob (shepherd's purse (CAPBP); compound 35 g/ha, CQC-m 0 g/ha): 100%
% visual injury, Ob (shepherd's purse (CAPBP); compound 70 g/ha, CQC-m 0 g/ha): 100%
% visual injury, Ob (cornflower (CENCY) [2]; CENCY, compound 4.375 g/ha, CQC-m 0 g/ha): 100%
% visual injury, Ob (cornflower (CENCY) [2]; CENCY, compound 8.75 g/ha, CQC-m 0 g/ha): 100%
% visual injury, Ob (cornflower (CENCY) [2]; CENCY, compound 17.5 g/ha, CQC-m 0 g/ha): 100%
% visual injury, Ob (cornflower (CENCY) [2]; CENCY, compound 35 g/ha, CQC-m 0 g/ha): 100%
% visual injury, Ob (cornflower (CENCY) [2]; CENCY, compound 70 g/ha, CQC-m 0 g/ha): 100%

Nc1cc(-c2ccc3cc[nH]c3c2F)nc(C(=O)O)c1Cl [compound 15]
% visual injury, Ob (wild pansy (VIOTR); compound 4.375 g/ha): 0%
% visual injury, Ob (wild pansy (VIOTR); compound 8.75 g/ha): 10%
% visual injury, Ob (wild pansy (VIOTR); compound 17.5 g/ha): 10%
% visual injury, Ob (wild pansy (VIOTR); compound 35 g/ha): 20%
% visual injury, Ob (wild pansy (VIOTR); compound 70 g/ha): 30%
